These molecules were tested against T1, CCKB receptor (Mus musculus, UniProt P56481) (assay: radioligand binding assay at the CCKB receptor in mouse cortical membranes ([125I]-CCK8S)). Settings: 150 min at 21±3°.
T1 construct: The cortex was dissected, weighed and homogenised in 40 ml ice-cold buffer; from tissue; host or cells: cerebral cortex membranes of male CD1 mice (Charles River)
T1 sequence (P56481 1-453): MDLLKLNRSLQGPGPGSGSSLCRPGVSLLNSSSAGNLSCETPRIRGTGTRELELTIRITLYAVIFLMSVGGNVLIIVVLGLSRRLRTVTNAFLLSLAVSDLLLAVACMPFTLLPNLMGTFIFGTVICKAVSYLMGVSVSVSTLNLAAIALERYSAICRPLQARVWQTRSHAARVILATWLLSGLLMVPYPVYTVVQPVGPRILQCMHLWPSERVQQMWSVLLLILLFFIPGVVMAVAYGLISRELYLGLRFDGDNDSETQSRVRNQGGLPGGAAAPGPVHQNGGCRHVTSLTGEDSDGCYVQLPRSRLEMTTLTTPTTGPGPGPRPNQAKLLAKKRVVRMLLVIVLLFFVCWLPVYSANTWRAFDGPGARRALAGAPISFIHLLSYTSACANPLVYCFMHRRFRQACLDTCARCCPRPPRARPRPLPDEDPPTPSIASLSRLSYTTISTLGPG
Procedure: The compounds of the examples were tested for binding at the CCKB receptor in mouse cortical membranes by means of a radioligand binding assay. The procedure was as follows:
The whole brains from male mice (CD1 22-25 g; Charles River) were removed and placed in ice-cold buffer (pH7.2 @ 21±3 °) of the following composition (mM); 10 HEPES, 130 NaCl, 4.7 KCl, 5 MgCl2, 1 EDTA and containing 0.25 g.1^-1 bacitracin. The cortex was dissected, weighed and homogenised in 40 ml ice-cold buffer using a Teflon-in-glass homogeniser. The homogenate was centrifuged at 39,800 g for 20 min at @ 4°, the supernatant discarded and the pellet resuspended by homogenisation in fresh buffer. The homogenate was recentrifuged (39,800 g; 20 min @4°) and the final pellet was resuspended in HEPES buffer to give a tissue concentration of 2 mg.ml^-1 (original wet weight).
The membranes ([…]) were incubated for 150 min at 21±3° in a final volume of 0.5 ml with HEPES buffer containing [^125 I]-CCK8S (0.05 ml; 200 pM NEN 2200 Ci.mmol^-1) and competing compound. Total and non-specific binding of [^125 I]-CCK8S were defined using 0.05 ml of buffer and 0.05 ml of […] L-365,260, respectively. The assay was terminated by rapid filtration through pre-soaked Whatman GF/B filters using a Brandell Cell harvester. The filters were washed (3×3 ml) with ice-cold 50 mM Tris-HC1 (pH7.4 @ 4° C.) and bound radioactivity determined by counting (1 min.) in a gamma-counter.

O=C(NCC12CC3CC(CC(C3)C1)C2)C1C2CC(c3ccccc32)C1C(=O)N1CCC[C@@H]1C(=O)O (mixture of isomers) [Example 59, (±)-endo-cis-6-(2R-carboxy-pyrrolidinocarbonyl)-7-(1-adamantylmethylaminocarbonyl)-2,3-benzobicyclo[2.2.1]heptane] and O=C(O)CNC(=O)[C@@H]1CCCN1C(=O)C1C2CCC(c3ccccc32)C1C(=O)NCC12CC3CC(CC(C3)C1)C2 (stereo partly drawn) [Example 45, cis-exo-7-(2R-carboxymethylaminocarbonylpyrrolidinocarbonyl)-8-(1-adamantylmethylaminocarbonyl)-2,3-benzobicyclo[2.2.2]octane] are within 0.2 log units of each other in “CCKB pKi” value: 5.5 for the first, 5.6 for the second.

Same assay, conditions: 150 min at 21±3°, read-out: CCKB pKi (converted)

Compared with O=C(NCC12CC3CC(CC(C3)C1)C2)C1C2C=CC(CC2)C1C(=O)N1CCC[C@@H]1C(=O)O (mixture of isomers) [Example 33, cis-(±)-2-(1-R-carboxy-pyrrolidinocarbonyl)-3-(1-adamantylmethylaminocarbonyl)-bicyclo[2.2.2]oct-5-ene], O=C(O)CNC(=O)[C@H]1CCCN1C(=O)C1C2CCC(c3ccccc32)C1C(=O)NCC12CC3CC(CC(C3)C1)C2 (stereo partly drawn) [Example 46, cis-endo-7-(2R-carboxymethylaminocarbonyl-pyrrolidinocarbonyl)-8-(1-adamantylmethylaminocarbonyl)-2,3-benzobicyclo[2.2.2]octane] is 40-fold lower in Ki: 15800 nM for the first, 398 nM for the second.

Going from O=C(NCC12CC3CC(CC(C3)C1)C2)C1C(C(=O)N2CCC[C@@H]2C(=O)O)C2C=CC1C2(c1ccccc1)c1ccccc1 (mixture of isomers) [Example 53] to O=C(NCC12CC3CC(CC(C3)C1)C2)C1C2c3ccccc3C(c3cc4ccccc4cc32)C1C(=O)N1CCC[C@@H]1C(=O)O (stereo partly drawn) [Example 20, endo and exo cis-7-(2-R-carboxypyrrolidinocarbonyl)-8-(1-adamantylmethylaminocarbonyl)-2,3-benzo-5,6-(2,3-naphtho)bicyclo[2.2.2]octane], the Ki falls from 1580 nM to 158 nM (10-fold).

O=C(O)C1C2CC(c3ccccc32)C1C(=O)NCC12CC3CC(CC(C3)C1)C2 (mixture of isomers) [Example 57, endo-cis-(±)-7-(1-adamantylmethylaminocarbonyl)-2,3-benzobicyclo[2.2.1]hept-6-carboxylic acid] and O=C(NCC12CC3CC(CC(C3)C1)C2)[C@@H]1[C@H](C(=O)O)[C@@H]2C=C[C@H]1c1ccccc12 (relative stereo) [Example 1, exo-(±)-cis-8-(1-adamantylmethylaminocarbonyl)-5,6-benzobicyclo[2.2.2]oct-2-ene-7-carboxylic acid] are within 1.5-fold of each other in Ki: 5010 nM for the first, 3980 nM for the second.

O=C(O)C1C2c3ccccc3C(c3cc4ccccc4cc32)C1C(=O)NCC12CC3CC(CC(C3)C1)C2 (racemic) [Example 14, endo and exo cis-(±)-8-(1-adamantylmethylaminocarbonyl)-2,3-benzo-5,6-(2,3-naphtho)bicyclo[2.2.2]octane-7-carboxylic acid] and COC(=O)[C@@H]1CCCN1C(=O)C1C2c3ccccc3C(c3cc4ccccc4cc32)C1C(=O)NCC12CC3CC(CC(C3)C1)C2 (stereo partly drawn) [Example 21, endo and exo cis-7-(2-S-methoxy-carbonylpyrrolidinocarbonyl)-8-(1-adamantylmethylaminocarbonyl)-2,3-benzo-5,6-(2,3-naphtho) bicyclo-[2.2.2]octane] are within 1.5-fold of each other in Ki: 316 nM for the first, 398 nM for the second.

First: O=C(NCC1CCCCC1)[C@@H]1[C@H](C(=O)O)[C@@H]2C=C[C@H]1c1ccccc12 (relative stereo) [Example 3, exo-(±)-cis8-(1-cyclohexylmethylaminocarbonyl)-5,6-benzobicyclo[2.2.2]oct-2-ene-7-carboxylic acid]
Second: O=C(O)[C@@H]1[C@H](C(=O)NCC2CCCCC2)[C@H]2C=C[C@@H]1c1ccccc12 (relative stereo) [Example 4, endo-(±)-cis-8-(1-cyclohexylmethylaminocarbonyl)-5,6-benzobicyclo[2.2.2]oct-2-ene-7-carboxylic acid]
The Ki of the first is 1.6-fold lower: 25100 nM for the first, 39800 nM for the second.

Compared with CCCCCCCCNC(=O)[C@@H]1[C@H](C(=O)O)[C@@H]2C=C[C@H]1c1ccccc12 (relative stereo) [Example 5, exo-(±)-cis-8-(octylaminocarbonyl)-5,6-benzobicyclo[2.2.2]oct-2-ene-7-carboxylic acid], CCCCCCCCNC(=O)[C@H]1[C@@H](C(=O)O)[C@@H]2C=C[C@H]1c1ccccc12 (relative stereo) [Example 6, endo-(±)-cis-8-(octylamino-carbonyl)-5,6-benzobicyclo[2.2.2]oct-2-ene-7-carboxylic acid] is 2-fold higher in Ki: 12600 nM for the first, 25100 nM for the second.

First: O=C(NCC12CC3CC(CC(C3)C1)C2)C1C2C=CC(c3ccccc32)C1C(=O)N1C[C@H](O)C[C@@H]1C(=O)O (stereo partly drawn) [Example 28, endo-cis-7-(2-R-carboxy-4-R-hydroxy-pyrrolidinocarbonyl)-8-(1-adamantylmethylaminocarbonyl)-5,6-benzo-bicyclo[2.2.2]oct-2-ene]
Second: COC(=O)[C@H]1CCCN1C(=O)C1C2C=CC(c3ccccc32)C1C(=O)NCC12CC3CC(CC(C3)C1)C2 (stereo partly drawn) [Example 32, exo-cis-7-(2-R-methoxycarbonyl-pyrrolidinocarbonyl)-8-(1-adamantylmethylaminocarbonyl)-5,6-benzo-bicyclo[2.2.2]oct-2-ene]
The Ki of the first is 6.3-fold higher: 2000 nM for the first, 316 nM for the second.

First: C[C@H](NC(=O)[C@H]1CCCN1C(=O)C1C2CCC(c3ccccc32)C1C(=O)NCC12CC3CC(CC(C3)C1)C2)C(=O)O (stereo partly drawn) [Example 40, cis-exo-7-(2R-(1S-carboxyethylaminocarbonyl)-pyrrolidinocarbonyl)-8-(1-adamantylmethylaminocarbonyl)-2,3-benzobicyclo-[2.2.2.]octane]
Second: C[C@@H](NC(=O)[C@@H]1CCCN1C(=O)C1C2CCC(c3ccccc32)C1C(=O)NCC12CC3CC(CC(C3)C1)C2)C(=O)O (stereo partly drawn) [Example 44, cis-exo-7-(2S-(1R-carboxyethylaminocarbonyl)-pyrrolidinocarbonyl)-8-(1-adamantylmethylaminocarbonyl)-2,3-benzobicyclo[2.2.2]octane]
The Ki of the first is 7.9-fold higher: 7940 nM for the first, 1000 nM for the second.

Compared with C[C@@H](NC(=O)[C@H]1CCCN1C(=O)C1C2CCC(c3ccccc32)C1C(=O)NCC12CC3CC(CC(C3)C1)C2)C(=O)O (stereo partly drawn) [Example 47, cis-endo-7-(2R-(1R-carboxyethylaminocarbonyl)-pyrrolidinocarbonyl)-8-(1-adamantylmethylaminocarbonyl)-2,3-benzobicyclo[2.2.2]octane], C[C@H](NC(=O)[C@H]1CCCN1C(=O)C1C2CCC(c3ccccc32)C1C(=O)NCC12CC3CC(CC(C3)C1)C2)C(=O)O (stereo partly drawn) [Example 48, cis-endo-7-(2R-(1S-carboxyethylaminocarbonyl)-pyrrolidinocarbonyl)-8-(1-adamantylmethylaminocarbonyl)-2,3-benzobicyclo[2.2.2]octane] is 1.6-fold lower in Ki: 1260 nM for the first, 794 nM for the second.

Compared with O=C(O)CNC(=O)[C@@H]1CCCN1C(=O)C1C2CCC(c3ccccc32)C1C(=O)NCC12CC3CC(CC(C3)C1)C2 (stereo partly drawn) [Example 49, cis-endo-7-(2S-carboxymethylaminocarbonyl-pyrrolidinocarbonyl)-8-(1-adamantylmethylaminocarbonyl)-2,3-benzobicyclo[2.2.2]octane], C[C@@H](NC(=O)[C@@H]1CCCN1C(=O)C1C2CCC(c3ccccc32)C1C(=O)NCC12CC3CC(CC(C3)C1)C2)C(=O)O (stereo partly drawn) [Example 50, cis-endo-7-(2S-(1R-carboxyethylaminocarbonyl)-pyrrolidinocarbonyl)-8-(1-adamantylmethylaminocarbonyl)-2,3-benzobicyclo[2.2.2]octane] is 1.6-fold lower in Ki: 3980 nM for the first, 2510 nM for the second.

First: C[C@H](NC(=O)[C@@H]1CCCN1C(=O)C1C2CCC(c3ccccc32)C1C(=O)NCC12CC3CC(CC(C3)C1)C2)C(=O)O (stereo partly drawn) [Example 51, cis-endo-7-(2S-(1S-carboxyethylaminocarbonyl)-pyrrolidinocarbonyl)-8-(1-adamantylmethylaminocarbonyl)-2,3-benzobicyclo[2.2.2]octane]
Second: C[C@@H](NC(=O)C[C@@H]1CCCN1C(=O)C1C2CCC(c3ccccc32)C1C(=O)NCC12CC3CC(CC(C3)C1)C2)C(=O)O (stereo partly drawn) [Example 52, cis-endo-7-(2S-(1R-carboxyethylaminocarbonylmethyl)-pyrrolidinocarbonyl)-8-(1-adamantylmethylaminocarbonyl)-2,3-benzobicyclo[2.2.2]octane]
The Ki of the first is 50-fold higher: 5010 nM for the first, 100 nM for the second.

Source: patent US5674905A, “Bicyclooctane and bicycloheptane derivatives” (James Black Foundation Limited, priority 1992, dated 1997)
